Structures can show the parent of a compound that is named as a salt.
Columns and labels:
VEGFR-2 = VEGFR-2 (Homo sapiens, UniProt P35968); conditions: nonclinical studies; cited from earlier work
[1] = tested on: tumor bearing animal models; conditions: cited from earlier work
c-SRC = c-SRC (Homo sapiens, UniProt P12931); conditions: cited from earlier work
c-Kit = c-Kit (Homo sapiens, UniProt P10721); conditions: cited from earlier work
[2] = tested on: advanced or metastatic gastric cancer; conditions: cited from earlier work
[3] = healthy volunteers, cited from earlier work
[4] = tested on: mouse LL/2 lung carcinoma; experiment: LL/2 lung carcinoma syngeneic mouse model; format: in vivo; conditions: day 20; apatinib mesylate 300 mg/kg p.o. q.d., anti-muPD-1 antibody 10 mg/kg i.p. b.i.w.; C57BL/6 mice
Experimental: 40 female C57BL/6 mice purchased from Jackson Laboratories were enrolled on the study. Animals were housed for stabilization period. Animals were housed in individual HEPA ventilated cages (Innocage® IVC, Innovive USA). Fluorescent lighting was provided on a 12-hour cycle. Temperature and humidity was monitored and recorded daily and maintained to the maximum extent possible between 68-74° F. (20-23° C.) and 30-70% humidity, respectively. 2920×.10 18% soy irradiated rodent feed (Harlan) and autoclaved acidified water (pH 2.5-3) was provided ad libitum.
For inoculation, LL/2 cell viability was at 98%. Cryo vials containing LL/2 cells were thawed and prepared for injection into mice. On study day −3 cells were washed in PBS, counted, and re-suspended in cold PBS at concentrations of 250,000 viable cells/100 μL. Cell suspensions were mixed with PBS and kept on ice during transport to the vivarium. Cells for injections were prepared by withdrawing the PBS-cell mixture into a chilled 1 mL Lure-lok syringe fitted with a 26 7/8 G (0.5 mm×22 mm) needle. […]
Animals were monitored weekly for palpable tumors, or any changes in appearance or behavior. Once tumors were palpable, they were measured 3 times a week using calipers. Tumor volume was calculated using the following equation (longest diameter×shortest diameter 2)/2.
Body weight was measured at least three times a week. […]

[5] = in vivo; cited from earlier work
[6] = single dose, cited from earlier work

Sequence of VEGFR-2 (P35968 20-1356, species assumed): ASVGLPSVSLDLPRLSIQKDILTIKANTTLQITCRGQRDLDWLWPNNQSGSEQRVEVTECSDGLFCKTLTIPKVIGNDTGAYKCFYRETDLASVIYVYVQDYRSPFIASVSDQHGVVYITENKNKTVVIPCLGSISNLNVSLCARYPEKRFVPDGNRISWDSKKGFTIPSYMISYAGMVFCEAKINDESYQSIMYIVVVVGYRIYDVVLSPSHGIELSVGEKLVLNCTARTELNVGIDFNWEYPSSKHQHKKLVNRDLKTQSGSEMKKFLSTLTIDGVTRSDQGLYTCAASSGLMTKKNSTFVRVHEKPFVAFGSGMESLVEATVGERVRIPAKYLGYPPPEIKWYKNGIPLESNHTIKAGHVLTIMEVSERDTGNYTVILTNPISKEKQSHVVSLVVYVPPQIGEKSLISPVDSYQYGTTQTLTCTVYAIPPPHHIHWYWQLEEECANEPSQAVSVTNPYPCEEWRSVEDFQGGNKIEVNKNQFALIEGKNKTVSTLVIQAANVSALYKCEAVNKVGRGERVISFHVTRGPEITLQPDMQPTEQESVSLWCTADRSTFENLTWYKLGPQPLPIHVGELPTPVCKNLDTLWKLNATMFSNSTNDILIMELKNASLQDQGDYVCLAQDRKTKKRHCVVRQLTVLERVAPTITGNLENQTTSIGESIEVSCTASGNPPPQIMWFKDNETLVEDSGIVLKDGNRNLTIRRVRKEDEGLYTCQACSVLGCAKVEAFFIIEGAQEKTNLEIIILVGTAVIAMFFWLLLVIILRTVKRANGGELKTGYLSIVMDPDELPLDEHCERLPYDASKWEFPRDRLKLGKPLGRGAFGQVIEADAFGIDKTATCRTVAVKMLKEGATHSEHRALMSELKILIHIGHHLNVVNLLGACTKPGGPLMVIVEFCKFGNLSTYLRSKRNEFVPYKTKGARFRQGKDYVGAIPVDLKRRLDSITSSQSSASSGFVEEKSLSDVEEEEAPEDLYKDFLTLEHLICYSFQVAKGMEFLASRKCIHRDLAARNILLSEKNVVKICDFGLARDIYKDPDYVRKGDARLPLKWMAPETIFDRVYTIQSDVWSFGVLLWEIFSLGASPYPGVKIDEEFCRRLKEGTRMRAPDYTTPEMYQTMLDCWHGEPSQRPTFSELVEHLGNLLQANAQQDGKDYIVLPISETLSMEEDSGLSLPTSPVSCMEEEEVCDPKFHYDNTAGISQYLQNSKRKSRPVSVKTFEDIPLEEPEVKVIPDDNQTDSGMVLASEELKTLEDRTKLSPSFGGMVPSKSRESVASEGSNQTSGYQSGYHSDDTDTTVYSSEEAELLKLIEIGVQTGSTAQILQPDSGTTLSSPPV
Sequence of c-Kit (P10721 26-976): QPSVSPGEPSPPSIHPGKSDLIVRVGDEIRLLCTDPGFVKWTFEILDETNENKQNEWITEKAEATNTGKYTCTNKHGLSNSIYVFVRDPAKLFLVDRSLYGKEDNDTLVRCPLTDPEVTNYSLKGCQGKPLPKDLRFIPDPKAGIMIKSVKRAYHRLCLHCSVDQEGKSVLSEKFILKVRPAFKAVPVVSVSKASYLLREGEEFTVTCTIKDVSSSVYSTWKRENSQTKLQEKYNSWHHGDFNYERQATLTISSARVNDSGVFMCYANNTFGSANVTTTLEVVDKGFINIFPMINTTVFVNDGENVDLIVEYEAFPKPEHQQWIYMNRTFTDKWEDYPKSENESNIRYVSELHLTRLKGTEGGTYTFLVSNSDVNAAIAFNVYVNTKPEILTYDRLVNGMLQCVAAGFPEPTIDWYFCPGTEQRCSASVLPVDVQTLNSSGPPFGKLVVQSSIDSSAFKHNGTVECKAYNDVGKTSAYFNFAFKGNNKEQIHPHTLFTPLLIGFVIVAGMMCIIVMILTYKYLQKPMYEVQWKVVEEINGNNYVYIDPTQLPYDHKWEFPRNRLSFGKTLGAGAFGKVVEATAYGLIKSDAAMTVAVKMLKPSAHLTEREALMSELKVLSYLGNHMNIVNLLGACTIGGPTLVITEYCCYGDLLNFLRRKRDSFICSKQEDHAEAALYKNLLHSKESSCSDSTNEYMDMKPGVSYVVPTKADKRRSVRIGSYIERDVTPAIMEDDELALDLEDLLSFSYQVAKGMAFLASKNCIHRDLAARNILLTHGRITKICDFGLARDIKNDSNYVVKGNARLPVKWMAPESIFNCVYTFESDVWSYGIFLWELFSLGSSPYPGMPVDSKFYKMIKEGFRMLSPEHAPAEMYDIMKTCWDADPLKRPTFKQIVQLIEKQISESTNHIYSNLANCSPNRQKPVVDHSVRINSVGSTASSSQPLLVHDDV
Sequence of c-SRC (P12931 whole entry, species assumed): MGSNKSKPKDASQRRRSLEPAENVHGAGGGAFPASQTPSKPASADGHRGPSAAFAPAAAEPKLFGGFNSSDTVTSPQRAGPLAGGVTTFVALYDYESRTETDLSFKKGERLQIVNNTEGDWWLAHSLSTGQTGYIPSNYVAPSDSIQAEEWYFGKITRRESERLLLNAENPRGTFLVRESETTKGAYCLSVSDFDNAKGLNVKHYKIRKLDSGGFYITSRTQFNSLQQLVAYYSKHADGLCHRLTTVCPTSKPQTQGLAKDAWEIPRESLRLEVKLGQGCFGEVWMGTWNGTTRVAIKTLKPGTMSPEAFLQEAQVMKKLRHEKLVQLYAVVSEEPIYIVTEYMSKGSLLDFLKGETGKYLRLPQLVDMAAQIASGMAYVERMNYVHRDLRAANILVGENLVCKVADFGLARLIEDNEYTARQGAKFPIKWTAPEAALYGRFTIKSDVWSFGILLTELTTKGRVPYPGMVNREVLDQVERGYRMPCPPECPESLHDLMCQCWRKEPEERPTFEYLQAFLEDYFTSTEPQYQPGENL

For `N#CC1(c2ccc(NC(=O)c3cccnc3NCc3ccncc3)cc2)CCCC1` [Rivoceranib, N-[4-(1-cyanocyclopentyl)phenyl]-2-{[(pyridin-4-yl)methyl]amino} pyridine-3-carboxamide], the “binding to VEGFR-2” value (VEGFR-2) is given as “selectively binds”, the “side effects in animals” value ([1]; at efficacious doses) is given as “minimal side effects” and the “efficacy in various tumor bearing animal models” value ([1]; nonclinical studies) is given as “efficacious”. For the same compound, the “inhibition of c-SRC tyrosine kinase” value (c-SRC) was “mildly inhibits”, the “inhibition of c-Kit tyrosine kinase” value (c-Kit) was “mildly inhibits” and the “median overall survival (OS) compared to placebo” value ([2]; Phase 3) was “prolonged”. For the same compound, the “median progression-free survival (PFS) compared to placebo” value ([2]; Phase 3) was “prolonged”, the “patients with Grade ¾ adverse reactions” value ([2]; hypertension, HFS, proteinuria, fatigue, anorexia, and elevated aminotransferase) was “more than 2%” and the “food effects on the bioavailability” value ([3]; 81 mg rivoceranib dose) was “minimal”. For the same compound, the “increase in bioavailability with food” value ([3]; 201 mg dose) was 20-30% and the “% Tumor growth inhibition” value [4] was 37%.

In the case of `CNC(=O)c1cc(Oc2ccc(NC(=O)Nc3ccc(Cl)c(C(F)(F)F)c3)cc2)ccn1` [Sorafenib], the “Safety Profile: Central nervous system” value [5] is listed as “R”, the “Safety Profile: GI” value [5] is listed as “R” and the “Safety Profile: Heart” value [5] is listed as “R”. For the same compound, the “Safety Profile: Liver/Bile” value [5] was “R”, the “Safety Profile: Lung airways” value [5] was “R” and the “Safety Profile: Musculoskeletal/bone” value [5] was “R”. For the same compound, the “Safety Profile: Renal” value [5] was “R”.

In the case of `Cc1ccc(Nc2nccc(N(C)c3ccc4c(C)n(C)nc4c3)n2)cc1S(N)(=O)=O` [Pazopanib], the “Safety Profile: Heart” value [5] is given as “R”.

For `N#CC1(c2ccc(NC(=O)c3cccnc3NCc3ccncc3)cc2)CCCC1` [rivoceranib mesylate], the “AUC0-∞ in Chinese and Japanese subjects compared to Caucasian subjects” value ([6]; healthy male) is listed as “slightly higher”, the “Cmax in Chinese and Japanese subjects compared to Caucasian subjects” value ([6]; healthy male) is listed as “slightly higher” and the t1/2 ([6]; similar amongst Caucasian, Japanese and Chinese groups) is listed as 7.5 to 8 h.

For `Cc1cn(-c2cc(NC(=O)c3ccc(C)c(Nc4nccc(-c5cccnc5)n4)c3)cc(C(F)(F)F)c2)cn1` [Nilotinib], the “Safety Profile: Central nervous system” value [5] is listed as “R”, the “Safety Profile: GI” value [5] is listed as “R” and the “Safety Profile: Musculoskeletal/bone” value [5] is listed as “R”. The “Safety Profile: Renal” value [5] was “R” and the “Safety Profile: Vascular” value [5] was “R”.

In the case of `CCN(CC)CCNC(=O)c1c(C)[nH]c(/C=C2\C(=O)Nc3ccc(F)cc32)c1C` [Sunitinib], the “Safety Profile: Central nervous system” value [5] is listed as “R”, the “Safety Profile: Heart” value [5] is listed as “R” and the “Safety Profile: Liver/Bile” value [5] is listed as “R”.

In the case of `Cc1nc(Nc2ncc(C(=O)Nc3c(C)cccc3Cl)s2)cc(N2CCN(CCO)CC2)n1` [Dasatinib], the “Safety Profile: Central nervous system” value [5] is given as “R”, the “Safety Profile: Liver/Bile” value [5] is given as “R” and the “Safety Profile: Musculoskeletal/bone” value [5] is given as “R”. For the same compound, the “Safety Profile: Renal” value [5] was “R”.

In the case of `C#Cc1cccc(Nc2ncnc3cc(OCCOC)c(OCCOC)cc23)c1` [Erlotinib], the “Safety Profile: Blood/lymph system” value [5] is listed as “R”, the “Safety Profile: Central nervous system” value [5] is listed as “R” and the “Safety Profile: Liver/Bile” value [5] is listed as “R”.

For `CS(=O)(=O)CCNCc1ccc(-c2ccc3ncnc(Nc4ccc(OCc5cccc(F)c5)c(Cl)c4)c3c2)o1` [Lapatinib], the “Safety Profile: Central nervous system” value [5] is listed as “R” and the “Safety Profile: Heart” value [5] is listed as “R”.

Source: patent US20200282052A1, “A COMBINATION THERAPY WITH APATINIB FOR THE TREATMENT OF CANCER” (Elevar Therapeutics, Inc., priority 2017, published 2020)
